According to ChEMBL document CHEMBL4052645, “Discovery of potent and efficacious pyrrolopyridazines as dual JAK1/3 inhibitors” (Bioorg Med Chem Lett, 2017):
Activity calls are given as the source filed them. The calls are words filed in the database; no cut-off is given here.

Key:
[1] = target: Tyrosine-protein kinase JAK1 (Homo sapiens, UniProt P23458); test: Inhibition of GST-tagged JAK1 (unknown origin) after 3 hrs by Caliper assay
[2] = target: Non-receptor tyrosine-protein kinase TYK2 (Homo sapiens, UniProt P29597); test: Inhibition of His-tagged TYK2 (unknown origin) after 3 hrs by Caliper assay
[3] = target: T1, Tyrosine-protein kinase JAK3 (Homo sapiens, UniProt P52333); test: Inhibition of JAK3 (unknown origin) using CSKtide as substrate after 30 mins in presence of [gamma33P]ATP by liquid scintillation counting method
T1 sequence (P52333 whole entry): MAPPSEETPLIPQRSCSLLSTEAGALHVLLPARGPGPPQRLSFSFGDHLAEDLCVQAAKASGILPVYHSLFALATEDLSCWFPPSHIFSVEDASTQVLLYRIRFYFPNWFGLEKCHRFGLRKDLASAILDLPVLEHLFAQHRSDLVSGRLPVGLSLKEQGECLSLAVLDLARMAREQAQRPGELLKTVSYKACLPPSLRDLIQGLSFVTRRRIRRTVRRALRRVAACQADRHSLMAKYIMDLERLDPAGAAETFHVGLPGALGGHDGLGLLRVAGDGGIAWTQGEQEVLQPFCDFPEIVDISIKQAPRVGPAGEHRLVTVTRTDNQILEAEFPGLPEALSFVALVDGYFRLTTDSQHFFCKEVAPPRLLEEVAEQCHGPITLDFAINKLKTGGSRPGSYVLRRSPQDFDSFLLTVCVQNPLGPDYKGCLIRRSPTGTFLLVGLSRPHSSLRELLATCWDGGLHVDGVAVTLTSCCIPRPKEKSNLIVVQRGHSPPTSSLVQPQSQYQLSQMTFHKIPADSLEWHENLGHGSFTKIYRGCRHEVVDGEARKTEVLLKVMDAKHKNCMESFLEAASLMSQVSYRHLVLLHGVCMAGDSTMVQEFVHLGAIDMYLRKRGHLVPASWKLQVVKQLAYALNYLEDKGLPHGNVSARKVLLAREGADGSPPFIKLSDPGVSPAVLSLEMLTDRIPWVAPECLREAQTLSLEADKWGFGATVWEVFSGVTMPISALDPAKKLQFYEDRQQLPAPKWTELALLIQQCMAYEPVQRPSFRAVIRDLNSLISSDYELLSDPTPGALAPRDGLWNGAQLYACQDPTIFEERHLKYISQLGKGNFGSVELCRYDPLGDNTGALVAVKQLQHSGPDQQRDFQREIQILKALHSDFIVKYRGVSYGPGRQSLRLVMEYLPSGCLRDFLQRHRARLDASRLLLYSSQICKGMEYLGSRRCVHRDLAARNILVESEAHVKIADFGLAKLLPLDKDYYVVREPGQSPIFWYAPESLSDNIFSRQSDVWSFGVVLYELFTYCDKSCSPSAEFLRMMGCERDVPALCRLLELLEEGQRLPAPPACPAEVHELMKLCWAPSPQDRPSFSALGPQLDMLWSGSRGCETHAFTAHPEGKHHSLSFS

[4] = target: Tyrosine-protein kinase JAK2 (Homo sapiens, UniProt O60674); test: Inhibition of GST-tagged JAK2 (unknown origin) after 3 hrs by Caliper assay
[5] = Selectivity ratio of IC50 for JAK2 dependent EPO-induced STAT5A phosphorylation in human TF1 cells to IC50 for JAK1/JAK3 dependent IL2-induced STAT3 phosphorylation in human PBMC derived T-cells
JAK3/JAK1 = JAK3/JAK1 (Homo sapiens, UniProt P23458+P52333); test: Inhibition of JAK1/JAK3 in human whole blood assessed as reduction in IL-2 induced IFN-gamma production after 18 hrs by ELISA; type: protein-complex assay
[6] = target: Voltage-gated inwardly rectifying potassium channel KCNH2 (Homo sapiens, UniProt Q12809); test: Inhibition of human ERG by flux-based assay
[7] = Cmax in mouse at 10 mg/kg, po; type: ADME, organism-based; design: dose 10 mg/kg, route oral; settings: in vivo
[8] = Permeability from apical side to basolateral side in human Caco2 cells; type: ADME, cell-based; settings: Caco-2, read-out: permeability
[9] = Metabolic stability in mouse liver microsomes assessed as compound remaining after 10 mins; type: ADME, microsome; settings: read-out: Stability
[10] = Protein binding in mouse plasma at 10 mg/kg, po; type: ADME, organism-based; settings: read-out: PPB (converted)
[11] = Cmax in mouse at 10 mg/kg, po after 8 hrs; type: ADME, organism-based; design: dose 10 mg/kg, route oral; settings: in vivo
[12] = Cmin in mouse at 10 mg/kg, po after 8 hrs; type: ADME, organism-based; settings: in vivo, read-out: Cmin
[13] = Oral bioavailability in rat; type: ADME, organism-based; settings: in vivo
Rattus norvegicus = species on record: Rattus norvegicus; test: Clearance of compound in rat relative to hepatic blood flow; type: ADME; settings: in vivo
[14] = Clearance of compound in rat; type: ADME; settings: in vivo
Serum = test: Protein binding in human serum; type: ADME, cell-free
Mus musculus [15] = test: Antiarthritic activity in collagen-induced arthritis mouse model assessed as reduction in inflammation at 20 mg/kg bid measure up to 41 days; type: functional, organism-based
Mus musculus [16] = test: Antiarthritic activity in collagen-induced mouse model assessed as […] at 20 mg/kg bid up to 41 days; type: functional, organism-based

JAK3/JAK1, sequence (P23458 whole entry, one chain of several): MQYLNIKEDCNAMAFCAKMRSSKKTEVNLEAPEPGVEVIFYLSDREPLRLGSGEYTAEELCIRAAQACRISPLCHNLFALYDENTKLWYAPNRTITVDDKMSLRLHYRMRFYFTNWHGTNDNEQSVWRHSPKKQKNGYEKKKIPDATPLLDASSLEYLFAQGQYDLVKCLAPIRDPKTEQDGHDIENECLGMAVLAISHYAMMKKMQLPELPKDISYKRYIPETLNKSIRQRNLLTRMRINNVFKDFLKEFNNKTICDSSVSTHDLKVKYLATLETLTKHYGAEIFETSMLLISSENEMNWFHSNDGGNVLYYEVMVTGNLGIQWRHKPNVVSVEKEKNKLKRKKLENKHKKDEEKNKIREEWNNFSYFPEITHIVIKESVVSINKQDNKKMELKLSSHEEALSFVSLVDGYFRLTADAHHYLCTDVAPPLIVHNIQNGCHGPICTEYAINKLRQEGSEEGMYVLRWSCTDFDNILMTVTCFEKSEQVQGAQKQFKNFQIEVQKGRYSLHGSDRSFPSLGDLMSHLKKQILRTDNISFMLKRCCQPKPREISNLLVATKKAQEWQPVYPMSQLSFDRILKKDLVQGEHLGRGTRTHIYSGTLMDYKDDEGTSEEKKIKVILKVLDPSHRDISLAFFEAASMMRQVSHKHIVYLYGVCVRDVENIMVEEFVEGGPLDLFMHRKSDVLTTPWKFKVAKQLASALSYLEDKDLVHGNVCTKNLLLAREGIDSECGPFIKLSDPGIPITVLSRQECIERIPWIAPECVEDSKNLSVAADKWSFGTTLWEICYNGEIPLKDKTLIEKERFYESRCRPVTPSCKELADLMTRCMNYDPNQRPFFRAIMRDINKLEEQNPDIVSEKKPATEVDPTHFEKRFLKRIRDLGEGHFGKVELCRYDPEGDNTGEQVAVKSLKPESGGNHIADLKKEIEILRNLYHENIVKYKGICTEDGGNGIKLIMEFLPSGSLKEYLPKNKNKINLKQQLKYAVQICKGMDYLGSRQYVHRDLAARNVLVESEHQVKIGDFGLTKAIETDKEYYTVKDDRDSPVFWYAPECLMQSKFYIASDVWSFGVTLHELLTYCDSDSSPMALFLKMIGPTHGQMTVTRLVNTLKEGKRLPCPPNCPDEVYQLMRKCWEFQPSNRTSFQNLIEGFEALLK
Tyrosine-protein kinase JAK1, sequence (P23458 whole entry): as the sequence (P23458 whole entry, one chain of several) above
Tyrosine-protein kinase JAK2, sequence (O60674 whole entry): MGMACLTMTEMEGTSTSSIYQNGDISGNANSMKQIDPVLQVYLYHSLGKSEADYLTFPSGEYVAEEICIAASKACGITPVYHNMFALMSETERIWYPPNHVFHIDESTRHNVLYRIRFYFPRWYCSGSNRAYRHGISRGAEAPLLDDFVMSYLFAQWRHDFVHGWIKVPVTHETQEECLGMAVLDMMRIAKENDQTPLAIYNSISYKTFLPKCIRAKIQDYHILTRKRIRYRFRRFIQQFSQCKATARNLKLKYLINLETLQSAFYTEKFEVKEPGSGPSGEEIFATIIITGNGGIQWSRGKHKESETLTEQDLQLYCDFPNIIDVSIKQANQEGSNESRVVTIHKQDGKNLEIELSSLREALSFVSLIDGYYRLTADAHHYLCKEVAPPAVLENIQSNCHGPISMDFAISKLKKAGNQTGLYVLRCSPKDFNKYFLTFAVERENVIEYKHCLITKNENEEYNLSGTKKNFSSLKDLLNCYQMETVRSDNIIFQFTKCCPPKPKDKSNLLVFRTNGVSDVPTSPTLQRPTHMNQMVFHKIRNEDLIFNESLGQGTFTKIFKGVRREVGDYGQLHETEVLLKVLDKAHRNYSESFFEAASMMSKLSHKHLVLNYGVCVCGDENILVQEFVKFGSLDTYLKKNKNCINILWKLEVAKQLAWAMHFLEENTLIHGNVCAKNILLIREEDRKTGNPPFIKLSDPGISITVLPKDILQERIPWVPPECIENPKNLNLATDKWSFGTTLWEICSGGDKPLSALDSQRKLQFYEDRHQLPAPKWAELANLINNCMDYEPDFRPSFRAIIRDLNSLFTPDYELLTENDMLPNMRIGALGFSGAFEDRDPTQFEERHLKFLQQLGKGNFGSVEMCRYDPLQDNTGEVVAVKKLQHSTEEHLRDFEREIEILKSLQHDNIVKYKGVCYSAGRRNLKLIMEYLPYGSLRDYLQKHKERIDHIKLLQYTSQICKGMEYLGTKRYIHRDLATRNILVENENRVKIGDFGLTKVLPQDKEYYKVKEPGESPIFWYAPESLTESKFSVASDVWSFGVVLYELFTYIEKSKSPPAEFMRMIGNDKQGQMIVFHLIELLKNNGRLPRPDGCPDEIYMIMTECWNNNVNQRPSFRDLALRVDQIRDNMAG
Non-receptor tyrosine-protein kinase TYK2, sequence (P29597 whole entry): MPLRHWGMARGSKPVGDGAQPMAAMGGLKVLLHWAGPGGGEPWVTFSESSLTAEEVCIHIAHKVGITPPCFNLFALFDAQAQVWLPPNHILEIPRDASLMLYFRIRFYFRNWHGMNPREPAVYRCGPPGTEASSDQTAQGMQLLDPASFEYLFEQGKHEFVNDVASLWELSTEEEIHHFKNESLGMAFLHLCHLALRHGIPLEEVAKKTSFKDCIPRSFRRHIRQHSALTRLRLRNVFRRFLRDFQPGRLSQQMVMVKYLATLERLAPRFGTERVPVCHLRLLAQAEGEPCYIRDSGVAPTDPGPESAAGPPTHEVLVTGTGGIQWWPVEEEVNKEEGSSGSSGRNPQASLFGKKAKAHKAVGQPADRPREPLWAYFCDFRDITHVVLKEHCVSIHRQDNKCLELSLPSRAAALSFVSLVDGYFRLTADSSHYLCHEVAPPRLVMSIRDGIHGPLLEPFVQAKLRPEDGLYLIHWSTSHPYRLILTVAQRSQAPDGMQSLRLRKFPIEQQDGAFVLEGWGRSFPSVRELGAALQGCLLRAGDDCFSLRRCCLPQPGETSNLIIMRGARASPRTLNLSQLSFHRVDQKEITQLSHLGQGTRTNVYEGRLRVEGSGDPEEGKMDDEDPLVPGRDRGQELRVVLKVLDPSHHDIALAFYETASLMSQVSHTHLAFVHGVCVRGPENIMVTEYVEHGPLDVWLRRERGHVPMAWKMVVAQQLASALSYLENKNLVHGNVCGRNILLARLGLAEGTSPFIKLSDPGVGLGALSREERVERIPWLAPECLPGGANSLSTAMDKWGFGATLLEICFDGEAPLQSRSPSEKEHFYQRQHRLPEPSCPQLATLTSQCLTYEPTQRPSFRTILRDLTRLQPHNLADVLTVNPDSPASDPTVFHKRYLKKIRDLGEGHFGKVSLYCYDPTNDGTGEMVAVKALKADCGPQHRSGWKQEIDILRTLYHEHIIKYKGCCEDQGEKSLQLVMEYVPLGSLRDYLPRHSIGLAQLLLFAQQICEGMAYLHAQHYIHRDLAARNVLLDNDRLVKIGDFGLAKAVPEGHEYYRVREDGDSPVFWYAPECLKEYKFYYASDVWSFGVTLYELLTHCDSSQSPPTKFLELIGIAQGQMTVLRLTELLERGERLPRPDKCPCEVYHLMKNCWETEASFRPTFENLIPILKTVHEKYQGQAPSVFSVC
Voltage-gated inwardly rectifying potassium channel KCNH2, sequence (Q12809 whole entry): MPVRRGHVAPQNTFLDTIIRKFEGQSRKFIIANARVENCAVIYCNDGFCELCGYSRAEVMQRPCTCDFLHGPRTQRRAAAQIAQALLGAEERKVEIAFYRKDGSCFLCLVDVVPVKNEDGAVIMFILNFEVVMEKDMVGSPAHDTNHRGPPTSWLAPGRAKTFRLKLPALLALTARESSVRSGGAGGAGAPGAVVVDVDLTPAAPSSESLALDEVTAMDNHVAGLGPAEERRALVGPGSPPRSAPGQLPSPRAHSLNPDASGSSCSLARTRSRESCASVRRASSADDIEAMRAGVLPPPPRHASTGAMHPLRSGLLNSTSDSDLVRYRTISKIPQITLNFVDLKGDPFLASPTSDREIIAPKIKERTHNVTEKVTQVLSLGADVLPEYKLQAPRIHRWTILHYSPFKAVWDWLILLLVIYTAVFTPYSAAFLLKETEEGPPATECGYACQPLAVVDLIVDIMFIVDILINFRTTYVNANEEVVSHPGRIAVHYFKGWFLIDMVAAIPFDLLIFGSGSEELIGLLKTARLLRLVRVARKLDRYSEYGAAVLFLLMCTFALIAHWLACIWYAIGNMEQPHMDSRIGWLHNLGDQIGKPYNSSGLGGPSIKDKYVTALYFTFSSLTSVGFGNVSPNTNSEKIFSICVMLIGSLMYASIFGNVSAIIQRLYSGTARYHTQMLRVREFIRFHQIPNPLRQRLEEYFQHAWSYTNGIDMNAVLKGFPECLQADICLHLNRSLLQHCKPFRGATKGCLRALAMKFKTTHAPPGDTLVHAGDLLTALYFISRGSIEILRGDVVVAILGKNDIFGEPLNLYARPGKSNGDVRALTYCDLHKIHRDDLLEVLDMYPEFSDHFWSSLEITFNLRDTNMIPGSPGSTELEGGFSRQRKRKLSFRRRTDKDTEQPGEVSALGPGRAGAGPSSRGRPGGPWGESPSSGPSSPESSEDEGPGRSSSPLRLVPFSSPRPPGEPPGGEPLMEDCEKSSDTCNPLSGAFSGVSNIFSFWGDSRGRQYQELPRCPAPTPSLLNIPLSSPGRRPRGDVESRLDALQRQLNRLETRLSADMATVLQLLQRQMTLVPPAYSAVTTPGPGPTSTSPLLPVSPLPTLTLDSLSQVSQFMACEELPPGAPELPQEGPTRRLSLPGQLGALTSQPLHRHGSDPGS

SMILES	IC50 [1] [nM]	IC50 [2] [nM]	IC50 [3] [nM]	IC50 [4] [nM]	IC50 (JAK3/JAK1) [nM]	Cmax [7] [nM]	Papp A→B [8] [×10⁻⁶ cm/s]	remaining at 10 min [9] [%]	fraction unbound [10]	Cmax [11] [nM]	concentration at 8 h [12] [nM]	bioavailability [13] [%]	CL (Rattus norvegicus) [%]	clearance [14] [mL/min/kg]	PB (Serum) [%]	Ratio IC50 [5]	IC50 [6] [nM]	Activity (Mus musculus [15])	Activity (Mus musculus [16])
COc1cccc(-c2cc3c(N[C@@H]4CC[C@](C)(N)C4(C)C)c(C(N)=O)cnn3c2)c1	1	12	0.4	15	200											305	7200		
Cc1cnccc1-c1cc2c(N[C@@H]3CC[C@](C)(N)C3(C)C)c(C(N)=O)cnn2c1	2.4	29	4	19	75											250	> 80000		
CC1(C)[C@H](Nc2c(C(N)=O)cnn3cccc23)CC[C@]1(C)N												24	> 100	145	97				
CC1(C)[C@H](Nc2c(C(N)=O)cnn3cc(-c4cc[nH]n4)cc23)CC[C@]1(C)N	1.7	14	1.6	21	81	< 250	6.5	83	0.51										
CC1(C)[C@H](Nc2c(C(N)=O)cnn3cc(-c4cncnc4)cc23)CC[C@]1(C)N	28	190	11	160	240											180	8500		
C[C@@H]1CCN(C(=O)CC#N)C[C@@H]1N(C)c1ncnc2[nH]ccc12																		Active	Active

The next lines start with results.

IC50 [1] [nM]	IC50 [2] [nM]	IC50 [3] [nM]	IC50 [4] [nM]	IC50 (JAK3/JAK1) [nM]	Cmax [7] [nM]	Papp A→B [8] [×10⁻⁶ cm/s]	remaining at 10 min [9] [%]	fraction unbound [10]	Cmax [11] [nM]	concentration at 8 h [12] [nM]	bioavailability [13] [%]	CL (Rattus norvegicus) [%]	clearance [14] [mL/min/kg]	PB (Serum) [%]	SMILES	Ratio IC50 [5]	IC50 [6] [nM]	Activity (Mus musculus [15])	Activity (Mus musculus [16])
1.2	30	0.5	20	400											CC(C)Oc1ccc(-c2cc3c(N[C@@H]4CC[C@](C)(N)C4(C)C)c(C(N)=O)cnn3c2)cn1	2	5300		
2	29	0.9	22	84											Cc1ccc(-c2cc3c(N[C@@H]4CC[C@](C)(N)C4(C)C)c(C(N)=O)cnn3c2)cn1	80	8000		
0.6	5.7	0.6	3.5	55											Cc1cc(-c2cc3c(N[C@@H]4CC[C@](C)(N)C4(C)C)c(C(N)=O)cnn3c2)ccn1	8	30000		
0.9	7.9	0.9	11	700											Cc1cccc(-c2cc3c(N[C@@H]4CC[C@](C)(N)C4(C)C)c(C(N)=O)cnn3c2)c1	50	7700		
4.9	44	6.7	80	56	< 250	< 1.5	75	0.31							CC1(C)[C@H](Nc2c(C(N)=O)cnn3cc(-c4ccncc4)cc23)CC[C@]1(C)N				
3.6	46	4.6	70	120	< 250	2.3	68	0.22							CC1(C)[C@H](Nc2c(C(N)=O)cnn3cc(-c4ccncc4F)cc23)CC[C@]1(C)N	150	> 80000		
1.2	14	2.1	27	420											CC1(C)[C@H](Nc2c(C(N)=O)cnn3cc(-c4ccc(F)cc4)cc23)CC[C@]1(C)N	230	10200		
4	38	1.1	30	800											CCOc1ccc(-c2cc3c(N[C@@H]4CC[C@](C)(N)C4(C)C)c(C(N)=O)cnn3c2)cn1	120	17000		
2.2	27	0.4	19	100		< 1.5	88		300	100					CC1(C)[C@H](Nc2c(C(N)=O)cnn3cc(-c4ccc(F)nc4)cc23)CC[C@]1(C)N	13	35000		
